Data taken from PubChem BioAssay (NCI).
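GI50 marks 50% less growth. TGI: total growth inhibition.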

How the values were obtained:
Assay in all cases: NCI tumour cell line growth inhibition, 384-well format
UACC-257 melanoma = system: UACC-257 melanoma
UACC-62 melanoma = system: UACC-62 melanoma
OVCAR-8 ovarian = system: OVCAR-8 ovarian
OVCAR-3 ovarian = system: OVCAR-3 ovarian
RPMI-8226 leukemia = system: RPMI-8226 leukemia
NCI-H226 lung = system: NCI-H226 lung
ACHN renal = system: ACHN renal
HCC-2998 colon = system: HCC-2998 colon
KM12 colon = system: KM12 colon
NCI/ADR-RES ovarian = system: NCI/ADR-RES ovarian
SF-268 CNS = system: SF-268 CNS
OVCAR-5 ovarian = system: OVCAR-5 ovarian
CCRF-CEM leukemia = system: CCRF-CEM leukemia
LOX IMVI melanoma = system: LOX IMVI melanoma
HL-60(TB) leukemia = system: HL-60(TB) leukemia
NCI-H460 NSCLC = system: NCI-H460 NSCLC
T-47D breast = system: T-47D breast
HCT-15 colon = system: HCT-15 colon
HOP-92 NSCLC = system: HOP-92 NSCLC
UO-31 renal = system: UO-31 renal
COLO 205 colon = system: COLO 205 colon
SK-MEL-28 melanoma = system: SK-MEL-28 melanoma
MOLT-4 leukemia = system: MOLT-4 leukemia
PC-3 prostate = system: PC-3 prostate
MDA-MB-468 breast = system: MDA-MB-468 breast
SF-539 CNS = system: SF-539 CNS
IGROV1 ovarian = system: IGROV1 ovarian
MDA-MB-435 melanoma = system: MDA-MB-435 melanoma
CAKI-1 renal = system: CAKI-1 renal
SNB-75 CNS = system: SNB-75 CNS
A549 NSCLC = system: A549 NSCLC
SNB-19 CNS = system: SNB-19 CNS
A498 renal = system: A498 renal
786-0 renal = system: 786-0 renal
MALME-3M melanoma = system: MALME-3M melanoma
OVCAR-4 ovarian = system: OVCAR-4 ovarian
K-562 leukemia = system: K-562 leukemia
SK-MEL-5 melanoma = system: SK-MEL-5 melanoma
SW-620 colon = system: SW-620 colon
SK-OV-3 ovarian = system: SK-OV-3 ovarian
NCI-H23 lung = system: NCI-H23 lung
TK-10 renal = system: TK-10 renal
MCF7 breast = system: MCF7 breast
HS 578T breast = system: HS 578T breast
M14 melanoma = system: M14 melanoma
NCI-H522 lung = system: NCI-H522 lung
SF-295 CNS = system: SF-295 CNS
DU-145 prostate = system: DU-145 prostate
NCI-H322M lung = system: NCI-H322M lung
HT29 colon = system: HT29 colon
EKVX NSCLC = system: EKVX NSCLC
MDA-MB-231 breast = system: MDA-MB-231 breast
RXF 393 renal = system: RXF 393 renal
SN12C renal = system: SN12C renal
U251 glioblastoma = system: U251 glioblastoma
SR leukemia = system: SR leukemia
BT-549 breast = system: BT-549 breast
HOP-62 NSCLC = system: HOP-62 NSCLC

CCC[C@H](N[C@H]1CCc2cc(F)cc(F)c2C1)C(=O)Nc1cn(C(C)(C)CNCC(C)(C)C)cn1
GI50 (UACC-257 melanoma): 5.51 µM | TGI (UACC-257 melanoma): 21 µM | GI50 (UACC-62 melanoma): 14.1 µM | TGI (UACC-62 melanoma): 27.4 µM | GI50 (OVCAR-8 ovarian): 22.3 µM | TGI (OVCAR-8 ovarian): > 100 µM | GI50 (OVCAR-3 ovarian): 11.1 µM | TGI (OVCAR-3 ovarian): 23.5 µM | GI50 (RPMI-8226 leukemia): 3.03 µM | TGI (RPMI-8226 leukemia): 14.1 µM | GI50 (NCI-H226 lung): 15.6 µM | TGI (NCI-H226 lung): 40.4 µM | GI50 (ACHN renal): 19.9 µM | TGI (ACHN renal): 69.4 µM | GI50 (HCC-2998 colon): 7.48 µM | TGI (HCC-2998 colon): 21.6 µM | GI50 (KM12 colon): 16.1 µM | TGI (KM12 colon): 35.3 µM | GI50 (NCI/ADR-RES ovarian): 11.1 µM | TGI (NCI/ADR-RES ovarian): 27.1 µM | GI50 (SF-268 CNS): 19.8 µM | TGI (SF-268 CNS): 50.8 µM | GI50 (OVCAR-5 ovarian): 21.4 µM | TGI (OVCAR-5 ovarian): 53.9 µM | GI50 (CCRF-CEM leukemia): 6.62 µM | TGI (CCRF-CEM leukemia): 20 µM | GI50 (LOX IMVI melanoma): 17.3 µM | TGI (LOX IMVI melanoma): 31.3 µM | GI50 (HL-60(TB) leukemia): 10.7 µM | TGI (HL-60(TB) leukemia): 22.6 µM | GI50 (NCI-H460 NSCLC): 15.1 µM | TGI (NCI-H460 NSCLC): 29.4 µM | GI50 (T-47D breast): 6.21 µM | TGI (T-47D breast): 40 µM | GI50 (HCT-15 colon): 12 µM | TGI (HCT-15 colon): 25.6 µM | GI50 (HOP-92 NSCLC): 11.5 µM | TGI (HOP-92 NSCLC): 26.2 µM | GI50 (UO-31 renal): 14.9 µM | TGI (UO-31 renal): 32.4 µM | GI50 (COLO 205 colon): 21.3 µM | TGI (COLO 205 colon): 97.7 µM | GI50 (SK-MEL-28 melanoma): 14.7 µM | TGI (SK-MEL-28 melanoma): 29.3 µM | GI50 (MOLT-4 leukemia): 3.46 µM | TGI (MOLT-4 leukemia): 15 µM | GI50 (PC-3 prostate): 6.56 µM | TGI (PC-3 prostate): 21.8 µM | GI50 (MDA-MB-468 breast): 0.603 µM | TGI (MDA-MB-468 breast): 6.55 µM | GI50 (SF-539 CNS): 18 µM | TGI (SF-539 CNS): 32.1 µM | GI50 (IGROV1 ovarian): 25.9 µM | TGI (IGROV1 ovarian): > 100 µM | GI50 (MDA-MB-435 melanoma): 20.7 µM | TGI (MDA-MB-435 melanoma): 61.2 µM | GI50 (CAKI-1 renal): 14.2 µM | TGI (CAKI-1 renal): 31.6 µM | GI50 (SNB-75 CNS): 19.4 µM | TGI (SNB-75 CNS): 71 µM | GI50 (A549 NSCLC): 22.2 µM | TGI (A549 NSCLC): > 100 µM | GI50 (SNB-19 CNS): 21.9 µM | TGI (SNB-19 CNS): 67.3 µM | GI50 (A498 renal): 11.7 µM | TGI (A498 renal): 26.6 µM | GI50 ([…]-0 renal): 14.5 µM | TGI (786-0 renal): 29.9 µM | GI50 (MALME-3M melanoma): 2.64 µM | TGI (MALME-3M melanoma): 14.4 µM | GI50 (OVCAR-4 ovarian): 13.8 µM | TGI (OVCAR-4 ovarian): 61.9 µM | GI50 (K-562 leukemia): 5.58 µM | TGI (K-562 leukemia): 17 µM | GI50 (SK-MEL-5 melanoma): 11.4 µM | TGI (SK-MEL-5 melanoma): 23.6 µM | GI50 (SW-620 colon): 21.4 µM | TGI (SW-620 colon): 42.2 µM | GI50 (SK-OV-3 ovarian): 15.8 µM | TGI (SK-OV-3 ovarian): 33.2 µM | GI50 (NCI-H23 lung): 12.1 µM | TGI (NCI-H23 lung): 29.6 µM | GI50 (TK-10 renal): 21.4 µM | TGI (TK-10 renal): 90 µM | GI50 (MCF7 breast): 6.74 µM | TGI (MCF7 breast): 23.1 µM | GI50 (HS 578T breast): 13 µM | TGI (HS 578T breast): 31.7 µM | GI50 (M14 melanoma): 14.1 µM | TGI (M14 melanoma): 27.9 µM | GI50 (NCI-H522 lung): 18.4 µM | TGI (NCI-H522 lung): 48.4 µM | GI50 (SF-295 CNS): 14.6 µM | TGI (SF-295 CNS): 30.2 µM | GI50 (DU-145 prostate): 20.6 µM | TGI (DU-145 prostate): 74.6 µM | GI50 (NCI-H322M lung): 26.3 µM | TGI (NCI-H322M lung): 92.6 µM | GI50 (HT29 colon): 9.66 µM | TGI (HT29 colon): 22.7 µM | GI50 (EKVX NSCLC): 19.2 µM | TGI (EKVX NSCLC): 71.8 µM | GI50 (MDA-MB-231 breast): 12.2 µM | TGI (MDA-MB-231 breast): 32.1 µM | GI50 (RXF 393 renal): 11.1 µM | TGI (RXF 393 renal): 27.1 µM | GI50 (SN12C renal): 33.1 µM | TGI (SN12C renal): > 100 µM | GI50 (U251 glioblastoma): 17.3 µM | TGI (U251 glioblastoma): 33.1 µM | GI50 (SR leukemia): 3.71 µM | TGI (SR leukemia): 15.4 µM | GI50 (BT-549 breast): 6.44 µM | TGI (BT-549 breast): 26.2 µM | GI50 (HOP-62 NSCLC): 17.7 µM | TGI (HOP-62 NSCLC): 51.2 µM
